Test results from ChEMBL document CHEMBL3867439, “Affinity Crystallography: A New Approach to Extracting High-Affinity Enzyme Inhibitors from Natural Extracts” (J Nat Prod, 2016).

Target: T1, Cathepsin K (Homo sapiens, UniProt P43235)
T1 sequence (P43235 whole entry): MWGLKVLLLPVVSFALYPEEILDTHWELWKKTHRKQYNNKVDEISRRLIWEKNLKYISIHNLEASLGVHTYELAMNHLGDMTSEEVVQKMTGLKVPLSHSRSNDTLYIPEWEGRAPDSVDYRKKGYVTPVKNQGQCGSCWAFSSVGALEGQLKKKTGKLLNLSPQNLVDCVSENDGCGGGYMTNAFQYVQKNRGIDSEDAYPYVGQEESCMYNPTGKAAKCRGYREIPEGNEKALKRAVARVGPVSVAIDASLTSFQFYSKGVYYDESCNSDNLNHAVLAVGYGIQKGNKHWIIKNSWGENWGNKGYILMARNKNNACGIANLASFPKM
Test: Competitive inhibition of human recombinant cathepsin K using Z-FR-MCA fluorogenic substrate by Dixon plot analysis

Compound	Ki [nM]
CC(C)[C@H](NC(=O)[C@H](CCCNC(=N)N)NC(=O)N[C@@H](Cc1ccccc1)C(=O)O)C(=O)NC1=CN(C(=N)N)CCC1	393
CC(C)[C@H](NC(=O)[C@H](CCCNC(=N)N)NC(=O)N[C@@H](Cc1ccccc1)C(=O)O)C(=O)NC1CCCN(C(=N)N)C1=O (stereo partly specified)	163

Other lines, results leading:

Ki [nM]	Compound
105	CC(C)[C@H](NC(=O)[C@H](CCCNC(=N)N)NC(=O)N[C@@H](Cc1ccccc1)C(=O)O)C(=O)NC1CCCN(C(=N)N)C1O (stereo in doubt; form 1)
69	CC(C)[C@H](NC(=O)[C@H](CCCNC(=N)N)NC(=O)N[C@@H](Cc1ccccc1)C(=O)O)C(=O)NC1CCCN(C(=N)N)C1O (stereo in doubt; form 2)

Target: T1, Cathepsin K
Test: Competitive inhibition of human recombinant cathepsin K using Z-FR-MCA fluorogenic substrate by Handerson plot analysis

Compound	Ki [nM]
CC(C)[C@H](NC(=O)[C@H](CO)NC(=O)NCCCCNC(=N)N)C(=O)N[C@H]1CCCN(C(=N)N)C1O (stereo partly specified)	11
CC(C)[C@H](NC(=O)[C@H](CCCNC(=N)N)NC(=O)N[C@@H](Cc1ccccc1)C(=O)O)C(=O)NC1CCCN(C(=N)N)C1O (stereo in doubt; form 2)	41
